Measured values taken from patent publication EP4541891A1, “NOVEL LRP1-BINDING PEPTIDE” (Ichimaru Pharcos Co., Ltd., priority 2022, dated 2025).
Bridge positions count the residues as written; N and C are the ends. Square brackets hold non-standard residues; d marks the D form. Ends that are not written are not given here. Peptide text beside a SMILES is read from it. * marks the point of attachment. 5FAM = O=C1OC2(c3ccc(O)cc3Oc3cc(O)ccc32)c2ccc(C(=O)*)cc21; Biotin = O=C1N[C@H]2[C@H](CS[C@H]2CCCCC(=O)*)N1; Nle = CCCC[C@H](N)C(=O)O

Columns and labels:
[1] = tested on: LRP1 cluster 4-Fc chimeric proteins; assay: Competitive binding assay by ELISA against Sequence 46
Procedure: (§1) For comparison between the peptide of Sequence 1 with amino acid substitutions and the peptide of Sequence 2 in terms of the LRP1 binding activity and the resistance to protease degradation, a competitive binding assay by ELISA shown in FIG. 2 was constructed. Immediately (zero hour) or 24 hours after the mixing of the peptide of Sequence 2 or the amino acid-substituted peptide with mouse plasma at 37°C, the mixture was diluted to sufficiently lower the plasma concentration to any desired final concentration, and mixed with Sequence 46 (500 nM). This mixture was subjected to the competitive binding assay described above. The binding of Sequence 46 to the LRP1 cluster 4-Fc chimera proteins competes with the binding of Sequence 2 or the amino acid-substituted peptide to the LRP1 cluster 4-Fc chimera proteins, and thus is inhibited depending on the concentration of Sequence 2 or the amino acid-substituted peptide. That is, the binding activity of Sequence 2 or the amino acid-substituted peptide to the LRP1 cluster 4-Fc chimera proteins is detected as competitive inhibitory activity against the binding of Sequence 46. Regarding the binding value of Sequence 46 to the wells in which the LRP1 cluster 4-Fc chimeric proteins were not captured as 100% inhibitory activity and the binding value of Sequence 46 to the wells in which Sequence 2 or the amino acid-substituted peptide was not added as 0% inhibitory activity, the inhibitory activity values of Sequence 2 and the amino acid-substituted peptide were calculated in %.
Sequence 2 incubated with plasma for zero hour inhibited the binding of Sequence 46 in a concentration-dependent manner. […] However, the binding of Sequence 46 (500 nM) in wells loaded with 2,000 nM equivalent Sequence 2 averaged 50.6%.
Immediately or 24 hours after Sequences 1 to 44 were mixed with mouse plasma at 37°C, the mixtures were diluted to sufficiently lower the plasma concentration to a final concentration of 2,000 nM, and mixed with Sequence 46 (500 nM). The obtained mixtures were subjected to the above-described competitive binding assay. […] Other sequences tended to have diminished inhibitory activities.

[2] = Resistance to protease degradation in mouse plasma, read out by competitive binding ELISA; format: in vitro ADME; conditions: 37°C, inferred from loss of inhibitory activity
Procedure: as §1, with “The binding of Sequence 46 to the LRP1 cluster 4-Fc chimera proteins competes with the binding of Sequence 2 or the amino acid-substituted peptide to the LRP1 cluster 4-Fc chimera proteins, and thus is inhibited depending on the concentration of Sequence 2 or the amino acid-substituted peptide.” left out, “%. […]” for “%.”

[3] = tested on: LRP1 cluster 2-Fc chimeric proteins; assay: ELISA binding test of biotin-labeled peptides; conditions: biotinylated peptide 1,000 nM to 1.4 nM
Procedure: (§2) To evaluate the binding activity of the peptides to LRP1, an ELISA-based binding assay was constructed. The ELISA method will be briefly described below. First, a goat antihuman IgG-Fcγ polyclonal antibody (Catalog No. 109-0005-008, manufactured by Jackson Immuno Research) was added to a 96-well Maxisorp plate (Catalog No. 439454, manufactured by Nunc) at 1 µg/50 µL/well using D-PBS, followed by coating overnight at 4°C. Then, 0.5% BSA/D-PBS was further added at 300 µL/well, and blocking was carried out at room temperature for 30 minutes. After washing the plate with 0.1% Tween 20/D-PBS, LRP1 recombinant proteins, namely, LRP1 cluster 2-Fc chimeric proteins (Catalog No. 2368-L2-050, manufactured by R & D Systems), LRP1 cluster 3-Fc chimeric proteins (Catalog No. 48248-L3-050, manufactured by R & D Systems), or LRP1 cluster 4-Fc chimeric proteins (Catalog No. 5395-L4-050, manufactured by R & D Systems), were added at 100 ng/50 µL/well using 0.5% BSA/D-PBS, and allowed to react with the coated antibodies at room temperature for 30 minutes. After washing the plate with 0.1% Tween 20/PBS, Sequences 45 and 46, which were biotinylated peptides, were prepared at an arbitrary concentration using 0.5% BSA/D-PBS, and added at 50µL/well. After causing a reaction at room temperature for 30 minutes, the plate was washed with 0.1% Tween 20/D-PBS. Sequences 45 and 46 bound to the LRP1 recombinant proteins captured on the plate were detected with SA-HRP (Catalog No. ab7403, manufactured by Abeam). For quantification of HRP, TMB ELISA Substrate Solution (Catalog No. 34028, manufactured by Thermo Fisher) was used to measure absorbance at 450 nm.

[4] = tested on: LRP1 cluster 3-Fc chimeric proteins; assay: ELISA binding test of biotin-labeled peptides; conditions: biotinylated peptide 1,000 nM to 1.4 nM
Procedure: as §2

[5] = tested on: LRP1 cluster 4-Fc chimeric proteins; assay: ELISA binding test of biotin-labeled peptides; conditions: for binding to the LRP1 cluster 4-Fc chimeric proteins: biotinylated peptide 1,000 nM to 1.4 nM; for EC50: biotinylated peptide, SA-HRP detection, absorbance at 450 nm, n = 4
Procedure: as §2

[6] = molecular target: LRP1 cluster 4-Fc chimeric proteins (UniProt Q07954); assay: competitive ELISA, LRP1 cluster 4-Fc captured; peptide 2,000 nM against biotin-Sequence 46 500 nM
Chain of UniProt Q07954 (Q07954 3293-3783, stated change not applied): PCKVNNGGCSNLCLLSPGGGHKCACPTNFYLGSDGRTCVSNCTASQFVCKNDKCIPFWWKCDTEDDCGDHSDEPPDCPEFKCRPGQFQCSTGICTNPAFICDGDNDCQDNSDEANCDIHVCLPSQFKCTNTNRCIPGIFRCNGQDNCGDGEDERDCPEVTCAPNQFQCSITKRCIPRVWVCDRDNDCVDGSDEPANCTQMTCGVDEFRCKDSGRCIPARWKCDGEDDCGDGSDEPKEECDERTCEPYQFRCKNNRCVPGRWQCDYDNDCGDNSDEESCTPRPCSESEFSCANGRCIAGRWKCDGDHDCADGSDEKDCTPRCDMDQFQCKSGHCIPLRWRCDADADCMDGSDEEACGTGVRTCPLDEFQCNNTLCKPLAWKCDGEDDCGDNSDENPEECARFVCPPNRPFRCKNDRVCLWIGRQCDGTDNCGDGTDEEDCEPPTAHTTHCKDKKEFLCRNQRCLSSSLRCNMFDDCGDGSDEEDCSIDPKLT

[7] = molecular target: LRP1 cluster 4-Fc chimeric proteins (UniProt Q07954); assay: competitive ELISA, LRP1 cluster 4-Fc captured; Sequence 2 at 500 nM (zero hour in mouse plasma) against biotin-Sequence 46 500 nM
[8] = molecular target: LRP1 cluster 4-Fc chimeric proteins (UniProt Q07954); assay: competitive ELISA, LRP1 cluster 4-Fc captured; Sequence 2 at 2,000 nM equivalent after 24 h in mouse plasma at 37 C (about 75% degraded) against biotin-Sequence 46 500 nM

Molecule | binding to the LRP1 cluster 2-Fc chimeric proteins [3] | binding to the LRP1 cluster 3-Fc chimeric proteins [4] | binding to the LRP1 cluster 4-Fc chimeric proteins [5] | EC50 [5] | further results
CCCC[C@@H]1NC(=O)[C@H](CCC(=O)O)NC(=O)[C@H](C)NC(=O)[C@H](CC(C)C)NC(=O)[C@H](CCCC)NC(=O)[C@H](Cc2ccc(O)cc2)NC(=O)[C@H](CCCCN)NC(=O)[C@H](Cc2ccc(O)cc2)NC(=O)[C@H]([C@@H](C)O)NC(=O)[C@@H](NC(=O)[C@@H]2CCCN2C(=O)[C@@H](NC(=O)CNC(=O)[C@H](CCCCNC(=O)c2ccc3c(c2)C(=O)OC32c3ccc(O)cc3Oc3cc(O)ccc32)NC(C)=O)[C@@H](C)O)CSSC[C@@H](C(=O)O)NC1=O [Sequence 2, Ac-Lys(5FAM)-Gly-Thr-Pro-c(Cys-Thr-Tyr-Lys-Tyr-Nle-Leu-Ala-Glu-Nle-Cys)-OH] (Ac-K(5FAM)GTPCTYKY[Nle]LAE[Nle]C-OH; disulfide 5-15) | – | – | – | – | inhibitory activity ([1]; peptide 2,000 nM versus Sequence 46 (500 nM), time point not stated): 79.4%; binding of Sequence 46 (500nM) ([1]; wells loaded with 2,000 nM equivalent Sequence 2, incubated with mouse plasma for 24 hours at 37°C, average): 50.6%; binding of Sequence 46 (500nM) ([1]; wells with 500 nM Sequence 2, incubated with mouse plasma for zero hour, n = 4, average): 52.4%; degraded during the 24-hour incubation with the mouse plasma [2]: approximately 75%
Ac-K(Biotin)GTPCTYKY[Nle]LAE[Nle]C-OH (cysteine pairing not given here) [Sequence 45] | little or no binding | little or no binding | selectively and in a peptide concentration-dependent manner | 10.5 nM | –
CCCC[C@@H]1NC(=O)[C@H](CCC(=O)O)NC(=O)[C@H](C)NC(=O)[C@H](CC(C)C)NC(=O)[C@H](CCCC)NC(=O)[C@H](Cc2ccc(O)cc2)NC(=O)[C@H](CCCCN)NC(=O)[C@H](Cc2ccc(O)cc2)NC(=O)[C@H]([C@@H](C)O)NC(=O)[C@@H](NC(=O)[C@@H]2CCCN2C(=O)[C@@H](NC(=O)CNC(=O)[C@H](CCCCNC(=O)CCCC[C@@H]2SC[C@@H]3NC(=O)N[C@@H]32)NC(C)=O)[C@@H](C)O)CSSC[C@@H](C(=O)O)NC1=O [Sequence 46, Ac-Lys(Biotin)-Gly-Thr-Pro-c(Cys-Thr-Tyr-Lys-Tyr-Nle-Leu-Ala-Glu-Nle-Cys)-OH] (Ac-K(Biotin)GTPCTYKY[Nle]LAE[Nle]C-OH; disulfide 5-15) | little or no binding | little or no binding | selectively and in a peptide concentration-dependent manner | 11 nM | –
Ac-K(5FAM)GTPCTYKY[Nle]LAE[Nle]C (disulfide 5-15) [SEQUENCE 2] | – | – | – | – | inhibitory activity (%) [6]: 79.4%; binding of Sequence 46 (%) in the presence of the peptide [7]: 52.4%; binding of Sequence 46 (%) in the presence of the peptide [8]: 50.6%
